Source: US20220088040A1, “Use of System XC-Inhibitor for Treating Statin-Induced Myalgia” (Exerkine Corporation, priority 2017, published 2022)

Columns and labels:
C2C12 myotubes = test: Glutamate efflux from C2C12 myotubes (Amplex Red glutamic acid assay of culture media); type: cell-based, murine; conditions: for effect on glutamate efflux caused by atorvastatin: sulfasalazine 20 μM, cysteamine bitartrate 100 and 300 μM, vitamin E 100 μM, coenzyme Q10 50 μM; for glutamate efflux levels: co-treated with atorvastatin 5 μM and sulfasalazine 20 μM
Sprague Dawley rats = test: Extramyocellular glutamate in rat gastrocnemius muscle by interstitial microdialysis; type: in vivo; conditions: 10 days, muscle dialysate (FIG. 6)
[1] = tested on: primary human fibroblasts; test: Glutamate efflux from primary human fibroblasts; type: cell-based; conditions: statin (atorvastatin 5 μM) (FIG. 3B)
system Xc- subunit xCT = test: xCT protein content in C2C12 myotubes by chemiluminescent immunoblot; type: cell-based, murine; conditions: atorvastatin 5 μM
primary human myoblasts = conditions: co-treatment of statin (atorvastatin 5 μM) with sulfasalazine 20 μM (FIG. 3A)
[2] = 5 μM atorvastatin, combination 100 μM vitamin E + 35 μM coenzyme Q10, N-acetylcysteine 5 mM (FIG. 4)
[3] = 7.5 μM atorvastatin, combination 100 μM vitamin E + 35 μM coenzyme Q10, N-acetylcysteine 5 mM (FIG. 5)

Molecule	effect on glutamate efflux caused by atorvastatin (C2C12 myotubes; [2])	effect on glutamate efflux caused by atorvastatin (C2C12 myotubes; [3])	also measured
NCCS.O=C(O)C(O)C(O)C(=O)O (stereo not shown) [Cysteamine bitartrate]	mitigated	mitigated	–
CC(=O)N[C@@H](CS)C(=O)O [N-acetylcysteine]	substantially increased	substantially increased	–
CC(C)c1c(C(=O)Nc2ccccc2)c(-c2ccccc2)c(-c2ccc(F)cc2)n1CC[C@@H](O)C[C@@H](O)CC(=O)O [atorvastatin]	–	–	increase in extramyocellular glutamate concentrations compared with the Control group (Sprague Dawley rats; atorvastatin 40 mg/kg/day oral): 21%; extracellular glutamate concentrations [1]: no changes; elevated xCT protein level (system Xc- subunit xCT; 24 hour time point (FIG. 1)): still present; elevation in xCT abundance (system Xc- subunit xCT; after 12 hours, vs vehicle (FIG. 1)): approximately 2 fold
O=C(O)c1cc(/N=N/c2ccc(S(=O)(=O)Nc3ccccn3)cc2)ccc1O [sulfasalazine]	inhibited	inhibited	extramyocellular glutamate concentrations, lower than Control (Sprague Dawley rats; atorvastatin 40 mg/kg/day with sulfasalazine 200 mg/kg/day oral): 19%; glutamate efflux / extracellular glutamate levels (primary human myoblasts): blocked this efflux and further reduced extracellular glutamate levels to those below the vehicle control group; glutamate efflux levels (C2C12 myotubes; 6 hour time point (FIG. 2)): initial increase; glutamate efflux levels (C2C12 myotubes; 12 hour to 24 hour time points (FIG. 2)): declined to baseline levels; glutamate efflux (C2C12 myotubes; sulfasalazine alone 20 μM, throughout the 0-24 h treatment period (FIG. 2)): around those of baseline values
COc1c(O)c(C)c(C/C=C(\C)CC/C=C(\C)CC/C=C(\C)CC/C=C(\C)CC/C=C(\C)CC/C=C(\C)CC/C=C(\C)CC/C=C(\C)CC/C=C(\C)CCC=C(C)C)c(O)c1OC [ubiquinol]	mitigated	mitigated	–
vitamin E	mitigated	mitigated	–
